Reference: patent publication US20230202981A1, “NOVEL SMALL MOLECULES FOR TARGETED DEGRADATION OF UNTARGETABLE KRAS IN CANCER THERAPY” (Pillai Universal LLC, priority 2020, published 2023)

Tests used:
KRAS mutant cell lines = test: Apoptosis by Annexin V-FITC/PI staining and flow cytometry; assay type: cell-based; conditions: mutant cancer cells, 24 h
Description: FIG. 6 depicts the compound I induces apoptosis in KRAS-dependent cancer cell line • FIG. 6(A)—Morphological changes after 24 h exposure to compound I ([…]) were captured by an Epifluroscent microscope with ×100 magnification, scale bar: 20 μm. • FIG. 6(B)—Cells were treated with 250 nm of Compound I for 24 h and apoptosis levels were quantitatively measured with flow cytometry after staining cells with Annexin V/propidium iodide (PI), and triplicate data were plotted as bar chart diagram. • FIG. 6(C)—Representative western blot data of different apoptosis-related protein (PARP, Bcl-2, and Bax) confirmed induction of cellular apoptosis after treatment ([…]) for 24 h. […]
Compound 1 was subjected to cancer induced model and determined whether the observed growth inhibition was due to apoptosis or necrosis. […] Next, applying standard Annex in V-FITC/PI staining followed by flow cytometry analysis, the percentage of apoptotic and necrotic cells were quantitatively measured. […] Furthermore, to examine compound-induced apoptosis in KRAS mutant cells, the expression levels of several well-characterized apoptotic proteins were analyzed by western blotting. […] The densitometry quantitation of the ratio of Bax/Bcl2 protein expression and PARP cleavage relative to GAPHD is shown as a bar chart in […].

BRCA 1/2-deficient cells = test: Toxicity to BRCA-deficient cells; assay type: cell-based; conditions: including cisplatin-resistant ones
wild-type (WT) HER2 = wild-type (WT) HER2 (Homo sapiens, UniProt P04626); test: Enzyme activity of EGFR family members; assay type: biochemical
Description: (§1) The activity of Compound 1 on various mutated EGFRs, HER2, and HER4 were examined. MTT assays, flow cytometry, and Western blotting were used to examine the effects of Compound 1 on with different genetic characteristics and relevant molecular mechanisms. Nude mouse xenograft models with cells were used to evaluate the in vim anti-tumor activity of Compound 1. […] Compound 1 blocked EGFR phosphorylation, thereby down regulating downstream PI3/AKT and MAPK/ERK signaling pathways and inducing G0/G1 arrest in different cells. […] Due to compromised homologous recombination (HR) repair, BRCA 1-and BRCA 2-mutated tumours accumulate DNA damage and genomic rearrangements conducive of tumour progression.

[1] = test system: drug-sensitive EGFR mutations, and EGFR C797S mutations; test: Enzyme activity of EGFR family members; assay type: biochemical
Description: as §1

[2] = test system: cancer cells expressing KRAS mutations; test: Cell viability assay in cancer cells expressing KRAS mutations; assay type: cell-based
Description: It was further examined that if Compound 1 can also induce cytotoxic effects on other cancer cells expressing KRAS mutations, a panel of cancer cell lines which harbor KRAS G12D, G12V and G12C point mutations respectively, were selected and used with KRAS wild-type (WT) controls.
The cytotoxicity of Compound 1 was initially evaluated in a panel of 30+ cell lines with wild-type (WT) KRAS or known KRAS mutations.

MCF-7 = test: IC50 of Compound 1 on breast cells (MTT assay); assay type: cell-based; conditions: Homo sapiens, MCF7; MCF-7 cells
Description: as §1

normal cell lines = test: Toxicity in normal cell lines; assay type: cell-based
PD-L1 = PD-L1 expression; assay type: cell-based
Description: The present invention is aimed to invent powerful, therapeutic small molecules that could target mutant KRAS on its active sites. Here we identified a small molecule, compound I, that binds the GTP/GDP-binding pocket of KRAS. For this purpose we studied a strong correlation of measurement among a larger panel of tumor cell lines expressing KRAS mutation and analyses the potency to inhibit the tumor cell growth activated RAS. […] Therefore, compound I may be considered as a potential KRAS inhibitor for treatment of cancer cells carrying KRAS oncogene.

[3] = test system: RAS-MAPK pathway signaling in KRAS G12C mutant cell lines; test: Reactivation of RAS signaling in KRAS G12C mutant cell lines; assay type: cell-based
Description: Densitometry of phosphor-ERK, MEK, AKT, and MYC is normalized to GAPDH. Results represent an average across 8 cell lines.

In vivo toxicity studies = test: In vivo toxicity studies
Description: FIG. 20 depicts the results of in vivo toxicity studies of Compound 1. Organ weight, Body weight, liver weight, haematological parameters, serum electrolyte LFT, KFT, Lipid parameters found to be normal range compared with the controlled group.
Tests of blood cells (WBC, RBC, and PLT) for bone marrow, RFT for kidney, and ALT/AST for liver functions all provided results in the normal range.

[4] = test system: mutant-KRAS-driven cancer; test: In vivo tumor model (PDTX animal model); set-up: species or system mice
Description: FIG. 18 depicts regression of all mutant-KRAS-driven cancer in PDTX Animal Model.
Compound 1 was also found to inhibit downstream signaling.

[5] = Crossing blood-brain barrier: pharmacokinetics in brain regions; assay type: in vivo; set-up: AUC0-t_D: concentration or dose not given beside the values
[6] = test system: GTP-KRAS in KRAS G12C, G12V, G12D, and G13D mutant cells; test: RAS activation assay, formation of GTP-bound KRAS in mutant cells; assay type: cell-based; conditions: 24 h
Description: Actually, mutant KRAS would interfere the balance between GEFs and GAPs, resulting in locking in the active GTP-bound KRAS state and aberrant stimulation of its downstream signaling.

Chain of wild-type (WT) HER2 (P04626 23-1255): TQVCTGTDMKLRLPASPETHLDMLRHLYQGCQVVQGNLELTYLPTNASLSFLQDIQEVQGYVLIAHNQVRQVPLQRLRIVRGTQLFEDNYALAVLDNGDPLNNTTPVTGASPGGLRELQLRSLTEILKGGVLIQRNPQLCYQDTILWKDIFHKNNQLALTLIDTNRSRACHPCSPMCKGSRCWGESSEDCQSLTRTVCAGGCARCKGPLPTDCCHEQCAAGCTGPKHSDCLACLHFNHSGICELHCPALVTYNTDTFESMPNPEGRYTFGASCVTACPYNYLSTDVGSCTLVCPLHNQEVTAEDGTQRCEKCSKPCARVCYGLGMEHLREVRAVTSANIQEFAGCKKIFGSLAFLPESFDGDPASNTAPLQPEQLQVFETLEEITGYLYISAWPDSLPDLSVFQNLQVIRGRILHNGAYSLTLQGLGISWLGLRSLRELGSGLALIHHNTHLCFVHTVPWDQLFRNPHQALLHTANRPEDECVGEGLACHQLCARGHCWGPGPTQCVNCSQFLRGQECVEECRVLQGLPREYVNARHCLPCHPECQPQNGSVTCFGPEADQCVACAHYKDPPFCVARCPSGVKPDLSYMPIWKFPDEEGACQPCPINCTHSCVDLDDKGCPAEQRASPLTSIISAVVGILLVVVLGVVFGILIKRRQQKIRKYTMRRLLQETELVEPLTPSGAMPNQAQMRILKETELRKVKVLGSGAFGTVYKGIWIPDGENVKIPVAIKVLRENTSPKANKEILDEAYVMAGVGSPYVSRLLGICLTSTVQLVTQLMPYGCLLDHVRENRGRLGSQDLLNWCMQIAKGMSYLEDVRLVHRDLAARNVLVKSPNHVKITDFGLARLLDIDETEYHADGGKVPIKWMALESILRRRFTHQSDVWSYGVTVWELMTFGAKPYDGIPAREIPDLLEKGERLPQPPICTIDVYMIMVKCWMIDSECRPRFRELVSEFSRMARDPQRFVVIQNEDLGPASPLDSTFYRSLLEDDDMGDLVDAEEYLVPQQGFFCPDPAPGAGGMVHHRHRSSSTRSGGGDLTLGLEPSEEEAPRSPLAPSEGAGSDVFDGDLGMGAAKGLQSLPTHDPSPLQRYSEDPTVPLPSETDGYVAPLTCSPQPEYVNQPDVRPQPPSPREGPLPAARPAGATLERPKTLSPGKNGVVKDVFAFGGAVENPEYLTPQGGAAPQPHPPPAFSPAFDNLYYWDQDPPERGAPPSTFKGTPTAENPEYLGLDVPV

CCCCc1ncc(C(=O)C2CC=C(C(N)=O)N2)cc1C(=O)OCC (stereo not shown) [Compound 1]
apoptosis compared with the untreated cells (KRAS mutant cell lines): significantly induced apoptosis
toxicity to BRCA 1/2-deficient cells (BRCA 1/2-deficient cells): specifically toxic
enzyme activity of HER2 (wild-type (WT) HER2): effectively inhibited the enzyme activity
enzyme activity of mutated EGFR [1]: effectively inhibited the enzyme activity
IC50 values, cancer cells and stem cells viability ([2]; KRAS G12D, G12V and G12C cell lines, 24 h): nanomolar concentration
IC50 values, cancer cell viability ([2]; panel of 30+ cell lines with WT KRAS or known KRAS mutations): micromolar to nanomolar concentrations
IC50 (MCF-7): 2.98 ± 0.6 µM
toxicity in normal cell lines (normal cell lines): minimum toxicity
PD-L1 expression (PD-L1): suppresses PD-L1 expression
MAPK pathway signaling (phosphor-MEK, phosphor-ERK, phosphor-AKT) ([3]; at 4 hours): suppressed MAPK pathway signaling
rebound of RAS-MAPK pathway signaling (pMEK, pERK, pAKT, MYC) ([3]; by 72 hours): no rebound activity was observed
histopathology of harvested normal tissues (In vivo toxicity studies; after treatment with specific doses): no evidence of normal tissue toxicities
blood cells, kidney and liver function tests, organ and body weight (In vivo toxicity studies; compared with the controlled group): normal range
tumor growth suppression ([4]; all mutant-KRAS-expressing animal models, started at day 9): significant suppression from day 10-14
relapse ([4]; for 6-8 months): no evidence of relapse
reduction in tumor growth ([4]; within 28 days): 95%
AUC0-t_D ([5]; Brainstem): 85.63 ± 17.43 h × ng/g/mg, h × ng/mL/mg
MRTQ-t ([5]; Brainstem): 5.89 ± 0.34 h
Tmax ([5]; Brainstem): 1.35 ± 0.33 h
T½ ([5]; Brainstem): 1.81 ± 0.23 h
AUC0-t_D ([5]; Cortex): 152.08 ± 5.25 h × ng/g/mg, h × ng/mL/mg
MRTQ-t ([5]; Cortex): 6.23 ± 0.65 h
Tmax ([5]; Cortex): 1.14 ± 0.09 h
T½ ([5]; Cortex): 5.86 ± 2.91 h
AUC0-t_D ([5]; Hippocampus): 58.20 ± 15.36 h × ng/g/mg, h × ng/mL/mg
MRTQ-t ([5]; Hippocampus): 5.18 ± 0.51 h
Tmax ([5]; Hippocampus): 1.25 ± 1.08 h
T½ ([5]; Hippocampus): 1.19 ± 0.22 h
AUC0-t_D ([5]; Hypothalamus): 59.10 ± 5.06 h × ng/g/mg, h × ng/mL/mg
MRTQ-t ([5]; Hypothalamus): 5.25 ± 0.60 h
Tmax ([5]; Hypothalamus): 0.54 ± 0.24 h
T½ ([5]; Hypothalamus): 1.18 ± 0.26 h
AUC0-t_D ([5]; Striatum): 123.81 ± 4.90 h × ng/g/mg, h × ng/mL/mg
MRTQ-t ([5]; Striatum): 6.75 ± 0.68 h
Tmax ([5]; Striatum): 0.14 ± 0.09 h
T½ ([5]; Striatum): 3.45 ± 0.93 h
formation of GTP-KRAS relative to the total amount of KRAS [6]: selectively inhibit the formation of GTP-KRAS
